#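 Test compounds were applied to cells in 96-well plates for 48 hours at 5 doses. Here, GI50 denotes the concentration required for 50% inhibition of growth.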 Active and inactive are the calls of the source. Cut-off read from the data, not from the text of the source: active = GI50 up to about 1.1 µM and inactive = higher.
# Experiments:
# Assay in all cases: inhibition of tumour cell growth, NCI panel, 48 h
# K562 = test system: K562
# IGROV-1 = test system: IGROV-1
# RXF 393 = test system: RXF 393
# OVCAR-4 = test system: OVCAR-4
# OVCAR-5 = test system: OVCAR-5
# UO-31 = test system: UO-31
# HOP-62 = test system: HOP-62
# SF-295 = test system: SF-295
# SK-MEL-5 = test system: SK-MEL-5
# ACHN = test system: ACHN
# SF-268 = test system: SF-268
# SK-OV-3 = test system: SK-OV-3
# CCRF-CEM = test system: CCRF-CEM
# HL-60 = test system: HL-60
# U-251 = test system: U-251
# SR = test system: SR
# HOP-92 = test system: HOP-92
# T47D = test system: T47D
# HCT-15 = test system: HCT-15
# HT-29 = test system: HT-29
# SK-MEL-2 = test system: SK-MEL-2
# NCI/ADR-RES = test system: NCI/ADR-RES
# CAKI-1 = test system: CAKI-1
# HCC 2998 = test system: HCC 2998
# UACC-62 = test system: UACC-62
# 786-0 = test system: 786-0
# SF-539 = test system: SF-539
# NCI-H226 = test system: NCI-H226
# M14 = test system: M14
# NCI-H522 = test system: NCI-H522
# MDA-MB-231 = test system: MDA-MB-231
# MDA-MB-435 = test system: MDA-MB-435
# SNB-75 = test system: SNB-75
# SNB-19 = test system: SNB-19
# DU-145 = test system: DU-145
# MOLT-4 = test system: MOLT-4
# OVCAR-8 = test system: OVCAR-8
# UACC-257 = test system: UACC-257
# COLO 205 = test system: COLO 205
# NCI-H460 = test system: NCI-H460
# SW-620 = test system: SW-620
# SN12C = test system: SN12C
# SK-MEL-28 = test system: SK-MEL-28
# A549 = test system: A549
# Malme-3M = test system: Malme-3M
# TK-10 = test system: TK-10
# RPMI-8226 = test system: RPMI-8226
# Hs-578T = test system: Hs-578T
# MDA-N = test system: MDA-N
# EKVX = test system: EKVX
# PC-3 = test system: PC-3
# KM12 = test system: KM12
# NCI-H23 = test system: NCI-H23
# A498 = test system: A498
# HCT-116 = test system: HCT-116
# MCF7 = test system: MCF7
# OVCAR-3 = test system: OVCAR-3
# LOX IMVI = test system: LOX IMVI
smiles,measurement,setting,value
COc1cc2c(NCCN(C)C)nc3c4cc5c(cc4ccc3c2cc1OC)OCO5,GI50,K562,3.23 µM (inactive)
same,GI50,IGROV-1,2.8 µM (inactive)
same,GI50,RXF 393,3.16 µM (inactive)
same,GI50,OVCAR-4,3.96 µM (inactive)
same,GI50,OVCAR-5,3.42 µM (inactive)
same,GI50,UO-31,3.36 µM (inactive)
same,GI50,HOP-62,3.54 µM (inactive)
same,GI50,SF-295,2.58 µM (inactive)
same,GI50,SK-MEL-5,2.84 µM (inactive)
same,GI50,ACHN,0.745 µM (active)
same,GI50,SF-268,4.78 µM (inactive)
same,GI50,SK-OV-3,4.78 µM (inactive)
same,GI50,CCRF-CEM,1.32 µM (inactive)
same,GI50,HL-60,4.23 µM (inactive)
same,GI50,U-251,4.16 µM (inactive)
same,GI50,SR,0.115 µM (active)
same,GI50,HOP-92,4.82 µM (inactive)
same,GI50,T47D,6.15 µM (inactive)
same,GI50,HCT-15,2.94 µM
same,GI50,HT-29,3.37 µM (inactive)
same,GI50,SK-MEL-2,6.04 µM (inactive)
same,GI50,NCI/ADR-RES,4.16 µM (inactive)
same,GI50,CAKI-1,2.73 µM (inactive)
same,GI50,HCC 2998,4.59 µM (inactive)
same,GI50,UACC-62,4.49 µM (inactive)
same,GI50,786-0,2.95 µM (inactive)
same,GI50,SF-539,4.06 µM (inactive)
same,GI50,NCI-H226,3.7 µM (inactive)
same,GI50,M14,4.03 µM (inactive)
same,GI50,NCI-H522,3.9 µM (inactive)
same,GI50,MDA-MB-231,5.13 µM (inactive)
same,GI50,MDA-MB-435,3.5 µM (inactive)
same,GI50,SNB-75,2.18 µM (inactive)
same,GI50,SNB-19,3.56 µM (inactive)
same,GI50,DU-145,3.96 µM (inactive)
same,GI50,MOLT-4,0.242 µM (active)
same,GI50,OVCAR-8,3.13 µM (inactive)
same,GI50,UACC-257,4.1 µM (inactive)
same,GI50,COLO 205,2.81 µM (inactive)
same,GI50,NCI-H460,0.193 µM (active)
same,GI50,SW-620,3.36 µM (inactive)
same,GI50,SN12C,4.53 µM (inactive)
same,GI50,SK-MEL-28,4.93 µM (inactive)
same,GI50,A549,2.75 µM (inactive)
same,GI50,Malme-3M,4.14 µM (inactive)
same,GI50,TK-10,2.72 µM (inactive)
same,GI50,RPMI-8226,2.56 µM (inactive)
same,GI50,Hs-578T,5.21 µM (inactive)
same,GI50,MDA-N,3.57 µM (inactive)
same,GI50,EKVX,4.09 µM (inactive)
same,GI50,PC-3,5.04 µM (inactive)
same,GI50,KM12,4.18 µM (inactive)
same,GI50,NCI-H23,3.08 µM (inactive)
same,GI50,A498,2.76 µM (inactive)
same,GI50,HCT-116,3.3 µM (inactive)
same,GI50,MCF7,1.84 µM (inactive)
COC(=O)CCc1ccc(CCC(=O)OC)cc1,GI50,K562,> 100 µM (inactive)
same,GI50,IGROV-1,> 100 µM (inactive)
same,GI50,RXF 393,> 100 µM (inactive)
same,GI50,OVCAR-4,> 100 µM (inactive)
same,GI50,OVCAR-5,> 100 µM (inactive)
same,GI50,UO-31,> 100 µM (inactive)
same,GI50,HOP-62,> 100 µM (inactive)
same,GI50,SF-295,> 100 µM (inactive)
same,GI50,OVCAR-3,> 100 µM (inactive)
same,GI50,SK-MEL-5,> 100 µM (inactive)
same,GI50,ACHN,> 100 µM (inactive)
same,GI50,SF-268,> 100 µM (inactive)
same,GI50,SK-OV-3,> 100 µM (inactive)
same,GI50,CCRF-CEM,> 100 µM (inactive)
same,GI50,HL-60,> 100 µM (inactive)
same,GI50,LOX IMVI,> 100 µM (inactive)
same,GI50,U-251,> 100 µM (inactive)
same,GI50,SR,> 100 µM (inactive)
same,GI50,HOP-92,> 100 µM (inactive)
same,GI50,T47D,> 100 µM (inactive)
same,GI50,HCT-15,> 100 µM
same,GI50,HT-29,> 100 µM (inactive)
same,GI50,SK-MEL-2,> 100 µM (inactive)
same,GI50,NCI/ADR-RES,> 100 µM (inactive)
same,GI50,CAKI-1,> 100 µM (inactive)
same,GI50,HCC 2998,> 100 µM (inactive)
same,GI50,786-0,> 100 µM (inactive)
same,GI50,SF-539,> 100 µM (inactive)
same,GI50,M14,> 100 µM (inactive)
same,GI50,NCI-H522,> 100 µM (inactive)
same,GI50,MDA-MB-231,> 100 µM (inactive)
same,GI50,MDA-MB-435,> 100 µM (inactive)
same,GI50,SNB-75,> 100 µM (inactive)
same,GI50,SNB-19,> 100 µM (inactive)
same,GI50,DU-145,> 100 µM (inactive)
same,GI50,MOLT-4,> 100 µM (inactive)
same,GI50,OVCAR-8,> 100 µM (inactive)
same,GI50,UACC-257,> 100 µM (inactive)
same,GI50,NCI-H460,> 100 µM (inactive)
same,GI50,SW-620,> 100 µM (inactive)
same,GI50,SK-MEL-28,> 100 µM (inactive)
same,GI50,A549,> 100 µM (inactive)
same,GI50,Malme-3M,> 100 µM (inactive)
same,GI50,TK-10,> 100 µM (inactive)
same,GI50,RPMI-8226,> 100 µM (inactive)
same,GI50,Hs-578T,> 100 µM (inactive)
same,GI50,MDA-N,> 100 µM (inactive)
same,GI50,EKVX,> 100 µM (inactive)
same,GI50,PC-3,> 100 µM (inactive)
same,GI50,NCI-H23,> 100 µM (inactive)
same,GI50,A498,> 100 µM (inactive)
same,GI50,HCT-116,> 100 µM (inactive)
same,GI50,MCF7,> 100 µM (inactive)

# Reference: ChEMBL document CHEMBL1201862, “PubChem BioAssay data set” (2004)
